Laboratory results: paper PMC6100386, “Preparation of Novel Homodimers Derived from Cytotoxic Isoquinolinequinones. A Twin Drug Approach” (Molecules : A Journal of Synthetic Chemistry and Natural …, 2018)
Read-outs that look alike come from different tables or passages of the source.

How the values were obtained:
[1] = tested on: MDA-MB-231 human breast adenocarcinoma cells; experiment: Cell growth inhibition assay (CyQuant direct cell proliferation), breast adenocarcinoma; assay type: cell-based; settings: human breast adenocarcinoma cell line, 72 h drug exposure, average of six independent determinations, read-out: IC50 ± SEM, MDA-MB 231
Protocol: (§1) The prepared homodimers 11–15 were evaluated for their in vitro cytotoxic activity using a conventional fluorescence assay (Cyquant direct cell proliferation assays), against primary mouse embryo fibroblast cell line MEF and two cancer cells lines: […] human breast adenocarcinoma and B16-F10 murine metastatic melanoma cells, in 72 h drug exposure assays. Monoamination products 6–10 were included in these preliminary assays. […] Etoposide and taxol, used clinically as anticancer agents, were taken as positive controls.
(§2) The cell lines used in this work included MDA-MB-231 human breast adenocarcinoma cells, B16-F10 mouse melanoma cells and MEF primary mouse embryonic fibroblasts. Cells were grown in DMEM high glucose medium (Mediatech, Manassas, VA, USA) supplemented with 10% (MDA-MB-231, and B16-F10) or 15% (MEF) heat-inactivated fetal bovine serum (HyClone laboratories, South Logan, UT, USA), 100 IU/mL penicillin and 100 μg/mL streptomycin, kept at 37 °C in a 5% CO2 humidified atmosphere. For the experiments, a total of 5.000 cells/well were seeded on a flat-bottomed 96-well plate with 200 μL final volume. Six hours after seeding, the cells were incubated with the medium containing the compounds at concentrations ranging from 0 up to 100 μM dissolved in DMSO (0.1% final concentration) for 72 h. The concentrations used to calculate the IC50 values were 100.0, 30.0, 10.0, 3.0, 1.0, 0.3, 0.1, 0.01 and 0.0 μM. Untreated cells (medium containing 0.1% DMSO) were used as controls. At the end of the incubation, cell viability was measured using CyQuant® direct cell proliferation assay kits (Life Technologies, Carlsbad, CA, USA) in accordance with the manufacturer’s instructions. Briefly, 100 μL of culture medium containing the compounds under evaluation was removed from each well and replaced by 2X detection reagent. The cells were incubated for 1 h and fluorescence emission was measured at 535 nm with excitation at 480 nm in a microplate reader (Infinite 200 PRO, Tecan, Männedorf, Switzerland). At least four independent experiments were performed for each concentration. Each result was transformed to percentage of controls and the IC50 values were obtained graphically from the dose–response curves. The IC50 value was obtained by adjusting the dose–response curve to a sigmoidal curve (variable slope) generated using GraphPad Prisma 6.0 software (La Jolla, CA, USA).

[2] = tested on: B16-F10 mouse melanoma cells; experiment: Cell growth inhibition assay (CyQuant direct cell proliferation), melanoma; assay type: cell-based; settings: murine metastatic melanoma cell line, 72 h drug exposure, average of six independent determinations, read-out: IC50 ± SEM, B16-F10
Protocol: as §1, §2

[3] = tested on: MEF primary mouse embryonic fibroblasts; experiment: Cell growth inhibition assay (CyQuant direct cell proliferation), normal fibroblasts; assay type: cell-based; settings: normal mouse embryo fibroblast cell line; 72 h drug exposure; average of six independent determinations; read-out: IC50 ± SEM, MEF
Protocol: as §1, §2

[4] = tested on: MDA-MB-231 and B16-F10 tumor cells (versus MEF fibroblasts); experiment: Cell growth inhibition assay, mean over the two tumor cell lines and selectivity versus fibroblasts; assay type: cell-based; settings: for SI (mean selectivity index): IC50 values for fibroblast cells / IC50 values for tumor cells (mean IC50); for IC50: mean of the IC50 values of the two tumor cell lines MDA-MB 231 and B16-F10, 72 h
Protocol: as §1, §2

Row | IC50 [1] | IC50 [2] | melting point | IC50 ([1]; MDA-MB-231) | IC50 ([2]; Mus musculus, B16-F10) | Molecule | IC50 [3] | SI (mean selectivity index) [4] | IC50 [4] | IC50 ([4]; Fibroblast)
1 | 2.75 ± 0.42 µM | 2.17 ± 0.37 µM | – | – | – | 4-Acetyl-6-((4-(4-aminobenzyl)phenyl)amino)-3-methylisoquinoline-5,8-dione [Compound 10] | 5.14 ± 0.69 µM | 2.09 | 2.46 µM | –
2 | – | – | 149 to 150 °C | 2.46 ± 0.39 µM | 6.16 ± 0.88 µM | COC(=O)c1c(C)nc(C)c2c1C(=O)C=C(Nc1ccc(Cc3ccc(N)cc3)cc1)C2=O [Compound 6] | 8.87 ± 0.88 µM | 2.06 | – | 4.31 µM
3 | 19.5 ± 1.46 µM | 7.14 ± 0.95 µM | – | – | – | CC(=O)c1c(C)nc(C)c2c1C(=O)C=C(Nc1ccc(Cc3ccc(N)cc3)cc1)C2=O [Compound 7] | 15.4 ± 1.97 µM | 1.15 | 13.3 µM | –
4 | – | – | 83 to 84 °C | 1.45 ± 0.31 µM | 3.31 ± 0.47 µM | COC(=O)c1c(C)ncc2c1C(=O)C=C(Nc1ccc(Cc3ccc(N)cc3)cc1)C2=O [Compound 8] | 5.54 ± 0.82 µM | 2.33 | – | 2.38 µM
5 | 1.59 ± 0.37 µM | 0.76 ± 0.21 µM | – | – | – | CC(=O)c1c(C)ncc2c1C(=O)C=C(Nc1ccc(Cc3ccc(N)cc3)cc1)C2=O [Compound 9] | 2.79 ± 0.44 µM | 2.36 | 1.18 µM | –
6 | – | – | 199 to 200 °C | 66.9 ± 6.13 µM | > 100 µM | COC(=O)c1c(C)nc(C)c2c1C(=O)C=C(Nc1ccc(Cc3ccc(NC4=CC(=O)c5c(C(=O)OC)c(C)nc(C)c5C4=O)cc3)cc1)C2=O [Compound 11] | > 100 µM | 0.30 | – | –
7 | 55.6 ± 5.95 µM | 48.6 ± 4.42 µM | – | – | – | CC(=O)c1c(C)nc(C)c2c1C(=O)C=C(Nc1ccc(Cc3ccc(NC4=CC(=O)c5c(C(C)=O)c(C)nc(C)c5C4=O)cc3)cc1)C2=O [Compound 12, 7,7′-(4,4′-Methylenebis(4,1-phenylene)bis(azanediyl))bis(4-acetyl-1,3-dimethylisoquinoline-5,8-dione)] | 71.6 ± 6.39 µM | 1.37 | 52.1 µM | –
8 | – | – | – | 24.8 ± 4.78 µM | 66.3 ± 5.61 µM | COC(=O)c1c(C)ncc2c1C(=O)C=C(Nc1ccc(Cc3ccc(NC4=CC(=O)c5c(cnc(C)c5C(=O)OC)C4=O)cc3)cc1)C2=O [Compound 13, Dimethyl-7,7′-(4,4′-methylenebis(4,1-phenylene)bis(azanediyl))bis(3-methyl-5,8-dioxo-5,8-dihydroisoquinoline-4-carboxylate)] | 79.8 ± 9.27 µM | 1.75 | – | 45.6 µM
9 | 7.98 ± 1.43 µM | 5.83 ± 0.73 µM | – | – | – | CC(=O)c1c(C)ncc2c1C(=O)C=C(Nc1ccc(Cc3ccc(NC4=CC(=O)c5c(cnc(C)c5C(C)=O)C4=O)cc3)cc1)C2=O [Compound 14, 7,7′-(4,4′-Methylenebis(4,1-phenylene)bis(azanediyl))bis(4-acetyl-3-methylisoquinoline-5,8-dione)] | 32.8 ± 3.38 µM | 4.74 | 6.91 µM | –
10 | – | – | 191 to 192 °C | 0.29 ± 0.05 µM | 0.45 ± 0.08 µM | COC(=O)c1c(C)ncc2c1C(=O)C=C(Nc1ccc(Cc3ccc(NC4=CC(=O)c5cnc(C)c(C(=O)OC)c5C4=O)cc3)cc1)C2=O [Compound 15, Methyl-7-(4-(4-(4-(methoxycarbonyl)-3-methyl-5,8-dioxo-5,8-dihydroisoquinolin-6-ylamino)benzyl)phenylamino)-3-methyl-5,8-dioxo-5,8-dihydroisoquinoline-4-carboxylate] | 2.58 ± 0.33 µM | 6.97 | – | 0.37 µM
11 | – | – | – | 5.34 ± 0.12 µM | 2 ± 0.44 µM | COc1cc([C@@H]2c3cc4c(cc3[C@@H](O[C@@H]3O[C@@H]5CO[C@@H](C)O[C@H]5[C@H](O)[C@H]3O)[C@H]3COC(=O)[C@H]23)OCO4)cc(OC)c1O [Etoposide, reference compound] | 1.18 ± 0.4 µM | 0.32 | – | 3.67 µM
12 | – | – | – | 0.32 ± 0.07 µM | 0.38 ± 0.06 µM | CC(=O)O[C@H]1C(=O)[C@@]2(C)[C@H]([C@H](OC(=O)c3ccccc3)[C@]3(O)C[C@H](OC(=O)[C@H](O)[C@@H](NC(=O)c4ccccc4)c4ccccc4)C(C)=C1C3(C)C)[C@]1(OC(C)=O)CO[C@@H]1C[C@@H]2O [Taxol, reference compound] | 0.32 ± 0.05 µM | 0.91 | – | 0.35 µM
